The values that follow come from patent publication US20140343480A1, “SYSTEMS, METHODS, AND COMPOSITIONS FOR CROSS-LINKING” (AVEDRO, INC., priority 2013, published 2014).

Data set [1] relates to corneal collagen. The experiment in a line: Papain digest fluorescence of corneal flaps (collagen cross-linking). More on the design: species or system Pig. Particulars: for fluorescence of the digested corneas in the area 450 nm: 20 min soak, 30 mW/cm^2, 4 min continuous UVA, vs non-cross-linked control; for fluorescence of the corneal samples after digestion with papain (excitation 360 nm): 30 mW/cm^2, pulsed 1 s on/1 s off, 8 min, oxygen, vs controls not exposed to UV; for fluorescence (relative to the untreated controls, Fo) recorded at 450 nm: 1% solution in dH2O. The procedure: Corneas were pan-corneally irradiated with a top hat beam (3% root mean square) for 8 minutes (7.2 J total dose) in a cylinder filled with oxygen with 365-nm light source (pulsing 1 second on, 1 second off) (UV LED NCSU033B[T]; Nichia Co., Tokushima, Japan) at the chosen irradiance (30 mW/cm^2) which was measured with a power sensor (model PD-300-UV; Ophir, Inc., Jerusalem, Israel) at the corneal surface. Before the start of irradiation, oxygen's exposure was 2 minutes. Corneal flaps (approximately 200 μm thick) were excised from the eyes with aid of Intralase femtosecond laser (Abbot Medical Optics, Santa Ana, Calif.). The average thickness of the corneal flaps was calculated as a difference between the measurements before and after the excision from the eyes with an ultrasonic Pachymeter (DGH Technology, Exton, Pa.). The flaps were washed with distilled water two times, dried with filter paper, washed with dH2O two times, and then dried in a vacuum until the weight change became less than 10% (Rotary vane vacuum pump RV3 A652-01-903, BOC Edwards, West Sussex, UK). Each flap was digested for 2.5 hours at 65° C. with 2.5 units/ml of papain (from Papaya latex, Sigma) in 1 ml of papain buffer [BBBS (pH 7.0-7.2), 2 mM L-cysteine and 2 mM EDTA]. Papain digests were centrifuged for 5 seconds at 2200×G (Mini centrifuge 05-090-100, Fisher Scientific), diluted 0.5 times with BBBS and fluorescence of the solutions was measured with excitation of λex=360 nm in a QM-40 Spectrofluorometer (Photon Technology Int., London, Ontario, Canada). The fluorescence of the papain buffer was taken into account by measuring fluorescence in the absence of tissue and subtracting this value from the fluorescence of the samples.
This method was used because the non-enzymatic cross-link density in collagens was previously quantified with use of papain digest fluorescence. There is a linear relationship between fluorescence and increasing cross-linking activity.
Corneal flaps were soaked in either distilled water or diluted H2O2 (1%) for 20 minutes. Flaps soaked in H2O2 were either rinsed twice with distilled water or removed from H2O2 and placed in 0.1% FeSO4 solution in distilled water for an additional 20 minute soak followed by a 2× rinse with distilled water. Flaps were dried in a vacuum until the weight change became less than 10% (Rotary vane vacuum pump RV3 A652-01-903, BOC Edwards, West Sussex, UK). Each flap was digested for 2.5 hours at 65° C. with 2.5 units/ml of papain (from Papaya latex, Sigma) in 1 ml of papain buffer [BBBS (pH 7.0-7.2), 2 mM L-cysteine and 2 mM EDTA]. Papain digests were centrifuged for 5 seconds at 2200×G (Mini centrifuge 05-090-100, Fisher Scientific), diluted 0.5 times with BBBS and fluorescence of the solutions was measured with excitation of λex=360 nm in a QM-40 Spectrofluorometer (Photon Technology Int., London, Ontario, Canada). The fluorescence of the papain buffer was taken into account by measuring fluorescence in the absence of tissue and subtracting this value from the fluorescence of the samples.
Pig eyes were shipped overnight on ice from an abattoir (SiouxPreme, Sioux City, Iowa), rinsed in saline. Eyes were cleaned and epithelium was removed. […] If specified, eyes were placed in a beaker with a light oxygen stream for 2 minutes in the incubation chamber prior to irradiation. Corneas were pan-corneally irradiated with a top hat beam (3% root mean square) for the chosen time (4 or 8 minutes) with 365-nm light source (UV LED NCSU033B[T]; Nichia Co., Tokushima, Japan) at the chosen irradiance (30 mW/cm^2, pulsed or non-pulsed) which was measured with a power sensor (model PD-300-UV; Ophir, Inc., Jerusalem, Israel) at the corneal surface. Corneal flaps (approximately 200 μm thick) were excised from the eyes with aid of Intralase femtosecond laser (Abbot Medical Optics, Santa Ana, Calif.).

The test system of data set [2] is corneal collagen. The experiment in a line: Biaxial extensometry (tensiometry) of corneal flaps. Set-up: species or system Pig. Particulars: for displacement vs. force (corneal stiffening): 30 mW/cm^2, pulsed 1 s on/1 s off, 8 min, oxygen, vs unexposed controls; for displacement-force (corneal stiffness): 1% solution in dH2O. The procedure: Pig eyes were shipped overnight on ice from an abattoir (SiouxPreme, Sioux City, Iowa), rinsed in saline. Eyes were cleaned and epithelium was removed. […] If specified, eyes were placed in a beaker with a light oxygen stream for 2 minutes in the incubation chamber prior to irradiation. Corneas were pan-corneally irradiated with a top hat beam (3% root mean square) for the chosen time (4 or 8 minutes) with 365-nm light source (UV LED NCSU033B[T]; Nichia Co., Tokushima, Japan) at the chosen irradiance (30 mW/cm^2, pulsed or non-pulsed) which was measured with a power sensor (model PD-300-UV; Ophir, Inc., Jerusalem, Israel) at the corneal surface. Corneal flaps (approximately 200 μm thick) were excised from the eyes with aid of Intralase femtosecond laser (Abbot Medical Optics, Santa Ana, Calif.). The average thickness of the corneal flaps was calculated as a difference between the measurements before and after the excision from the eyes with an ultrasonic Pachymeter (DGH Technology, Exton, Pa.). The flaps were placed into a biaxial extensometer (CellScale Biotester 5000, Waterloo, ON), using biorake attachments with 5 tines spanning a width of 3 mm. Each sample was stretched at a constant rate of 4 μm/s in saline at 37° C. until sample failure. The flaps were washed with distilled water 2 times, dried with filter paper, washed with dH2O two times, and then dried in a vacuum until the weight change became less than 10% (Rotary vane vacuum pump RV3 A652-01-903, BOC Edwards, West Sussex, UK). Each flap was digested for 2.5 hours at 65° C. with 2.5 units/ml of papain (from Papaya latex, Sigma) in 1 ml of papain buffer [BBBS (pH 7.0-7.2), 2 mM L-cysteine and 2 mM EDTA]. Papain digests were centrifuged for 5 seconds at 2200×G (Mini centrifuge 05-090-100, Fisher Scientific), diluted 0.5 times with 1XBBBS and fluorescence of the solutions was measured with excitation of λex=360 nm in a QM-40 Spectrofluorometer (Photon Technology Int., London, Ontario, Canada). The fluorescence of the papain buffer was taken into account by measuring fluorescence in the absence of tissue and subtracting this value from the fluorescence of the samples.
Pig eyes were shipped overnight on ice from an abattoir (SiouxPreme, Sioux City, Iowa), rinsed in saline. Eyes were cleaned and epithelium was removed. […] Corneas were pan-corneally irradiated with a top hat beam (3% root mean square) for 4 minutes with 365-nm light source (UV LED NCSU033B[T]; Nichia Co., Tokushima, Japan) at irradiance 30 mW/cm^2, which was measured with a power sensor (model PD-300-UV; Ophir, Inc., Jerusalem, Israel) at the corneal surface. Corneal flaps (approximately 200 μm thick) were excised from the eyes with aid of Intralase femtosecond laser (Abbott Medical Optics, Santa Ana, Calif.). The average thickness of the corneal flaps was calculated as a difference between the measurements before and after the excision from the eyes with an ultrasonic Pachymeter (DGH Technology, Exton, Pa.). The flaps were then placed into a biaxial extensometer (CellScale Biotester 5000, Waterloo, ON), using biorake attachments with 5 tines spanning a width of 3 mm. Each sample was stretched at a constant rate of 4 μm/s in saline at 37° C. until sample failure. The flaps were washed with distilled water, dried in a vacuum until the weight change became less than 10% (Rotary vane vacuum pump RV3 A652-01-903, BOC Edwards, West Sussex, UK). Each flap was digested for 2.5 h at 65° C. with 2.5 units/ml of papain (from Papaya latex, Sigma) in 1 ml of papain buffer [BBBS (pH 7.0-7.2), 2 mM L-cysteine and 2 mM EDTA]. Papain digests were centrifuged for 5 seconds at 2200×G (Mini centrifuge 05-090-100, Fisher Scientific), diluted 0.5 times with 1XBBBS and fluorescence of the solutions was measured with excitation of λex=360 nm in a QM-40 Spectrofluorometer (Photon Technology Int., London, Ontario, Canada).

A short description of data set [3]: Solubility of folic acid in phosphate buffer. The format is physicochemical. Particulars: pH 7, aqueous buffer, 25° C., pH of the final solution 7.0. The source says: FA is soluble in water with dependence on pH and temperature. […] FA has UV light absorbance at 400 nm and below (the long wave peak at 360 nm as shown in FIG. 16), and fluorescence with maximum around 460 nm (as shown in FIG. 17).

In the next data set the target is human serum albumin (Homo sapiens, UniProt P02768). Particulars: irradiated in the presence of human serum albumin; cited from earlier work.

≈ marks a conversion by molar mass, not a printed value. A value given as a limit tells only on which side of the number the result lay.

Chain of human serum albumin (P02768 25-609): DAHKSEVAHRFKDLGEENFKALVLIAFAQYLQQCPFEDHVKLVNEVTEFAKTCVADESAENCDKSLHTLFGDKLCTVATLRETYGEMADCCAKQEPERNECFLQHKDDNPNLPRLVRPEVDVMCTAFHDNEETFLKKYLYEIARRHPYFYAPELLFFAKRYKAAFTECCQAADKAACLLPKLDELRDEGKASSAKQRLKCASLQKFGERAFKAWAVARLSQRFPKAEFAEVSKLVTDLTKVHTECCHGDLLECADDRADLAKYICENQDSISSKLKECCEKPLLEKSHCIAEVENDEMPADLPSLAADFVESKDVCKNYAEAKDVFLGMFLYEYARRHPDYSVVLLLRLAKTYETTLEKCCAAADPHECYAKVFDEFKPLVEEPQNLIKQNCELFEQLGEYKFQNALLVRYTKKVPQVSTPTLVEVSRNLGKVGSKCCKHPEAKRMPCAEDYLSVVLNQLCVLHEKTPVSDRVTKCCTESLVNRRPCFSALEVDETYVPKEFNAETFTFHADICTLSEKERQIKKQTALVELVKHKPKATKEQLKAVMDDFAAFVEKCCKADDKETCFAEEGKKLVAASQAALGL

On to `Cc1cc2nc3c(=O)[nH]c(=O)nc-3n(C[C@H](O)[C@H](O)[C@H](O)CO)c2cc1C` [riboflavin], for which the “fluorescence of the digested corneas in the area 450 nm” value with corneal collagen [1] (0.1% in BBBS) is reported as “elevated fluorescence in the area 450 nm”. For the same compound, the “fluorescence of the corneal samples after digestion with papain (excitation 360 nm)” value in the data set on corneal collagen [1] (UV 365 nm) is listed as “fluorescence of the cross-linked collagen samples increases”. Also, in the data set on corneal collagen [2] (UV 365 nm), the “displacement vs. force (corneal stiffening)” value was “significant stiffening”. In addition, in the data set on corneal collagen [2] (vs control group, UVA 30 mW/cm^2, 4 min, CW), the “average force vs. displacement of corneal flap (tensiometry)” value is “higher than the control group”.

As for `CC(=O)C(C)=O` [2,3-butanedione], the “fluorescence (relative to the untreated controls, Fo) recorded at 450 nm” value with corneal collagen [1] (UV 365 nm, 30 mW, 4 min) was “increase of the corneal stiffness and fluorescence output”; in the data set with corneal collagen [1] (without UV light), “does not cross-link corneal flaps”. The “displacement-force (corneal stiffness)” value in the data set on corneal collagen [2] (UV 365 nm, 30 mW, 4 min) is “increase of the corneal stiffness”; with corneal collagen [2] (without UV light), “does not cross-link corneal flaps”.

As usually defined, the solubility is the concentration that dissolves in the medium under given conditions. A lower solubility goes with little dissolved substance. `Nc1nc2ncc(CNc3ccc(C(=O)N[C@@H](CCC(=O)O)C(=O)O)cc3)nc2c(=O)[nH]1` [FA, Folic acid]: the “fluorescence of the corneal samples after digestion with papain (excitation 360 nm)” value in the data set on corneal collagen [1] (UV 365 nm) is reported as “fluorescence of the cross-linked collagen samples increases”. Moreover, the “displacement vs. force (corneal stiffening)” value in the data set on corneal collagen [2] (UV 365 nm) is listed as “significant stiffening”. Besides, in data set [3], the concentration in solution (solubility) was 5500 µg/mL (≈ 12.5 mM).

In the case of hydrogen peroxide [H2O2], the “fluorescence counts of papain digested corneal flaps” value in the data set on corneal collagen [1] (flaps soaked 20 min in 1% H2O2, with or without a further 20 min in 0.1% Iron(II) (FeSO4), no UV) was “not when they were exposed to only H2O2”.

As to `Cc1c(C(=O)NCCO)[n+]([O-])c2ccccc2[n+]1[O-]` [Olaquindox, N-(2-hydroxyethyl)-3-methyl-2-quinoxalinecarboxamide 1,4-dioxide], the “relative fluorescence recorded at 450 nm” value in the data set with corneal collagen [1] (0.4% in PBS, UVA 30 mW/cm2, 4 min CW or 8 min pulsed + O2, vs non-irradiated control) is on record as “acquired fluorescence at 450 nm”. Further, the “biaxial extensiometry (corneal collagen stiffness)” value in the data set with corneal collagen [2] (0.4% in PBS, UVA 30 mW/cm2, 4 min CW or 8 min pulsed + O2, vs controls) is on record as “became stiffer”. In addition, the “time to complete disappearance on irradiation” value on human serum albumin is at most 20 s.

Turning to `Cc1cc2nc(C(=O)[O-])c(=O)n(C[C@H](O)[C@H](O)[C@H](O)CO)c2cc1C.O.[Na+]` [sodium salt of 1,2-Dihydro-6,7-dimethyl-2-keto-1-D-ribityl-3-quinoxalinecarboxylic acid monohydrate], the “fluorescence of the digested corneas in the area 450 nm” value in the data set with corneal collagen [1] (0.1% in BBBS) is recorded as “elevated fluorescence in the area 450 nm”. The “fluorescence of the digested corneal flaps (excitation 360 nm)” value in the data set with corneal collagen [1] (0.1% in BBBS, de-oxygenated with argon, irradiated 4 min at 30 mW/cm^2 in CO2 atmosphere) was “higher than the fluorescence of the corneal flaps cross-linked with riboflavin”.
